In patent US20090143279A1 (priority 2007, published 2009):
Where two headings read alike, the source gives them in different places.

Legend:
[1] = tested on: mitochondrial membrane potential; assay type: cell-based, mouse; settings: for ΔΨm (composite Z-score): normalized score vs mock-treated (DMSO) wells
reactive oxygen species = assay type: cell-based, mouse; settings: for ROS (composite Z-score): normalized score vs mock-treated (DMSO) wells
OXPHOS gene expression = assay type: cell-based, mouse; settings: for GE-HTS (composite Z-score): normalized score vs mock-treated (DMSO) wells
nuOXPHOS transcripts = assay type: cell-based, mouse; settings: for nucOX (composite Z-score): normalized score vs mock-treated (DMSO) wells
mtOXPHOS transcripts = assay type: cell-based, mouse; settings: for mitoOX (composite Z-score): normalized score vs mock-treated (DMSO) wells
cytochrome c = assay type: cell-based, mouse; settings: for cyt c (composite Z-score): normalized score vs mock-treated (DMSO) wells
C2C12 myotubes = settings: for Viability (composite Z-score): normalized score vs mock-treated (DMSO) wells
[2] = tested on: cellular dehydrogenase activity; settings: for MTT (composite Z-score): normalized score vs mock-treated (DMSO) wells
[3] = composite Z-score vs DMSO wells, Conc 20 μM
[4] = normalized composite Z-score vs mock-treated (DMSO) wells, Conc 20 μM
[5] = composite Z-score vs DMSO, Conc 20 μM
[6] = composite Z-score vs mock-treated (DMSO) wells, Conc 20 μM
[7] = 20 μM, composite Z-score vs DMSO
[8] = 12.18 μM, composite Z-score vs DMSO

SMILES: C[C@]12CC[C@H]3[C@@H](CC[C@]4(O)C[C@@H](O)CC[C@]34C=O)[C@@]1(O)CC[C@@H]2C1=CC(=O)OC1 [strophanthidin]
- ΔΨm [1]: −0.175
- ΔΨm [1, 3]: −1.126
- ΔΨm [1, 4]: −0.481
- ROS (reactive oxygen species): 0.947
- ROS (reactive oxygen species; [3]): 1.582
- ROS (reactive oxygen species; [4]): 1.036
- GE-HTS (OXPHOS gene expression): −0.590
- GE-HTS (OXPHOS gene expression; [3]): −0.232
- GE-HTS (OXPHOS gene expression; [4]): −0.789
- nucOX (nuOXPHOS transcripts): −0.729
- nucOX (nuOXPHOS transcripts; [3]): −0.222
- nucOX (nuOXPHOS transcripts; [4]): −0.525
- mitoOX (mtOXPHOS transcripts): −0.190
- mitoOX (mtOXPHOS transcripts; [3]): −0.231
- mitoOX (mtOXPHOS transcripts; [4]): −1.094
- cyt c (cytochrome c): 0.287
- cyt c (cytochrome c; [3]): 1.100
- cyt c (cytochrome c; [4]): 0.687
- Viability (C2C12 myotubes): −0.448
- Viability (C2C12 myotubes; [3]): 0.028
- Viability (C2C12 myotubes; [4]): −1.016
- MTT [2]: −0.908
- MTT [2, 3]: −0.828
- MTT [2, 4]: −1.573

SMILES: C[C@]12CC[C@H]3[C@@H](CC[C@]4(O)C[C@@H](O)CC[C@]34C(=O)O)[C@@]1(O)CC[C@@H]2C1=CC(=O)OC1 [strophanthidinic acid]
- ΔΨm [1, 4]: −0.875
- ROS (reactive oxygen species; [4]): −0.059
- GE-HTS (OXPHOS gene expression; [4]): −0.553
- nucOX (nuOXPHOS transcripts; [4]): −0.400
- mitoOX (mtOXPHOS transcripts; [4]): −0.726
- cyt c (cytochrome c; [4]): 0.166
- Viability (C2C12 myotubes; [4]): −0.745
- MTT [2, 4]: −1.651

SMILES: [H]/N=C(/N)NS(=O)(=O)c1ccc(N)cc1 [sulfaguanidine]
- ΔΨm [1, 3]: 0.217
- ROS (reactive oxygen species; [3]): 0.902
- GE-HTS (OXPHOS gene expression; [3]): −0.571
- nucOX (nuOXPHOS transcripts; [3]): −0.522
- mitoOX (mtOXPHOS transcripts; [3]): −0.556
- cyt c (cytochrome c; [3]): 0.147
- Viability (C2C12 myotubes; [3]): −0.691
- MTT [2, 3]: −0.421

SMILES: Cc1noc(NS(=O)(=O)c2ccc(N)cc2)c1C [sulfisoxazole]
- ΔΨm [1, 3]: −0.543
- ROS (reactive oxygen species; [3]): −0.095
- GE-HTS (OXPHOS gene expression; [3]): 0.103
- nucOX (nuOXPHOS transcripts; [3]): 0.239
- mitoOX (mtOXPHOS transcripts; [3]): −0.187
- cyt c (cytochrome c): 0.001
- cyt c (cytochrome c; [3]): 0.649
- Viability (C2C12 myotubes; [3]): −1.895
- MTT [2, 3]: −0.835

SMILES: COC(=O)C(C)c1ccc(C(=O)c2cccs2)cc1 (stereo not shown) [suprofen methyl ester]
- ΔΨm [1, 5]: 0.577
- ROS (reactive oxygen species; [5]): 0.591
- GE-HTS (OXPHOS gene expression; [5]): 0.139
- nucOX (nuOXPHOS transcripts; [5]): 0.216
- mitoOX (mtOXPHOS transcripts; [5]): −0.048
- cyt c (cytochrome c; [5]): −0.191
- Viability (C2C12 myotubes; [5]): 0.611
- MTT [2, 5]: −1.160

SMILES: COC(=O)[C@H](O)[C@H]1C(C)(C)[C@H](OC(C)=O)[C@@H]2CC3=C4CC(=O)O[C@@H](c5ccoc5)[C@]4(C)CC[C@@H]3[C@@]1(C)C2=O [swietenolide-3-acetate]
- ΔΨm [1, 6]: 1.006
- ROS (reactive oxygen species; [6]): 0.237
- GE-HTS (OXPHOS gene expression; [6]): −1.057
- nucOX (nuOXPHOS transcripts; [6]): −1.093
- mitoOX (mtOXPHOS transcripts; [6]): −0.838
- cyt c (cytochrome c; [6]): 0.668
- Viability (C2C12 myotubes; [6]): −0.503
- MTT [2, 6]: −0.776

SMILES: O=C(O)Cc1cc(I)c(Oc2cc(I)c(O)c(I)c2)c(I)c1 [tetrac]
- ΔΨm (composite Z-score) ([1]; Conc 20 μM): −1.457
- ROS (composite Z-score) (reactive oxygen species; Conc 20 μM): 2.718
- GE-HTS (composite Z-score) (OXPHOS gene expression; Conc 20 μM): 0.811
- nucOX (composite Z-score) (nuOXPHOS transcripts; Conc 20 μM): 0.714
- mitoOX (composite Z-score) (mtOXPHOS transcripts; Conc 20 μM): 0.898
- cyt c (composite Z-score) (cytochrome c; Conc 20 μM): 0.674
- Viability (composite Z-score) (C2C12 myotubes; Conc 20 μM): 1.361
- MTT (composite Z-score) ([2]; Conc 20 μM): −0.677

SMILES: CCCCNc1ccc(C(=O)OCCN(C)C)cc1 [tetracaine]
- ΔΨm [1, 3]: −0.492
- ROS (reactive oxygen species; [3]): 0.320
- GE-HTS (OXPHOS gene expression; [3]): −0.280
- nucOX (nuOXPHOS transcripts; [3]): −0.376
- mitoOX (mtOXPHOS transcripts; [3]): −0.034
- cyt c (cytochrome c): −0.536
- cyt c (cytochrome c; [3]): 0.383
- Viability (C2C12 myotubes; [3]): −0.539
- MTT [2, 3]: −0.048

SMILES: N#Cc1c(Cl)c(Cl)c(Cl)c(C#N)c1Cl [tetrachloroisophthalonitrile]
- ΔΨm (composite Z-score) ([1]; Conc 20 μM): −4.269
- ROS (composite Z-score) (reactive oxygen species; Conc 20 μM): −3.975
- GE-HTS (composite Z-score) (OXPHOS gene expression; Conc 20 μM): −3.510
- nucOX (composite Z-score) (nuOXPHOS transcripts; Conc 20 μM): −3.990
- mitoOX (composite Z-score) (mtOXPHOS transcripts; Conc 20 μM): −1.780
- cyt c (composite Z-score) (cytochrome c; Conc 20 μM): −5.292
- Viability (composite Z-score) (C2C12 myotubes; Conc 20 μM): −5.297
- MTT (composite Z-score) ([2]; Conc 20 μM): −6.675

SMILES: CC(=O)OCC(=O)[C@@]1(O)CCC2C3CC[C@@H]4C[C@H](OC(C)=O)CC[C@]4(C)C3C(=O)C[C@@]21C (stereo partly shown) [tetrahydrocortisone-3,21-diacetate]
- ΔΨm [1, 5]: 0.074
- ROS (reactive oxygen species; [5]): 0.456
- GE-HTS (OXPHOS gene expression; [5]): −0.320
- nucOX (nuOXPHOS transcripts; [5]): −0.558
- mitoOX (mtOXPHOS transcripts; [5]): 0.269
- cyt c (cytochrome c; [5]): −0.397
- Viability (C2C12 myotubes; [5]): −0.030
- MTT [2, 5]: −0.664

SMILES: CC(C)=CCCC1(C)C=Cc2c(O)c3c(c(CC=C(C)C)c2O1)OC12C(CC4CC1C(C)(C)OC2(C/C=C(/C)C(=O)O)C4O)C3=O (stereo not shown) [tetrahydrogambogic acid]
- ΔΨm [1, 6]: −1.438
- ROS (reactive oxygen species; [6]): 0.460
- GE-HTS (OXPHOS gene expression; [6]): −0.478
- nucOX (nuOXPHOS transcripts; [6]): −0.409
- mitoOX (mtOXPHOS transcripts; [6]): −0.490
- cyt c (cytochrome c; [6]): −0.932
- Viability (C2C12 myotubes; [6]): 1.434
- MTT [2, 6]: −1.090

SMILES: O=C1C(O)=C(O)C(=O)C(O)=C1O [tetroquinone]
- ΔΨm [1, 3]: −0.424
- ROS (reactive oxygen species; [3]): 0.638
- GE-HTS (OXPHOS gene expression; [3]): 0.067
- nucOX (nuOXPHOS transcripts; [3]): 0.028
- mitoOX (mtOXPHOS transcripts; [3]): 0.112
- cyt c (cytochrome c; [3]): 0.386
- Viability (C2C12 myotubes; [3]): 0.088
- MTT [2, 3]: −0.574

SMILES: O=c1c(O)cccc2c([C@H]3Oc4cc(O)cc(O)c4C[C@H]3O)cc(O)c(O)c12 [theaflavanin]
- ΔΨm (composite Z-score) ([1]; Conc 20 μM): −2.074
- ROS (composite Z-score) (reactive oxygen species; Conc 20 μM): −0.040
- GE-HTS (composite Z-score) (OXPHOS gene expression; Conc 20 μM): −0.695
- nucOX (composite Z-score) (nuOXPHOS transcripts; Conc 20 μM): −0.764
- mitoOX (composite Z-score) (mtOXPHOS transcripts; Conc 20 μM): −0.333
- cyt c (composite Z-score) (cytochrome c; Conc 20 μM): −0.166
- Viability (composite Z-score) (C2C12 myotubes; Conc 20 μM): −1.349
- MTT (composite Z-score) ([2]; Conc 20 μM): −0.665

SMILES: CCNC(=O)CC[C@H](N)C(=O)O [theanine]
- ΔΨm [1, 5]: −0.557
- ROS (reactive oxygen species; [5]): 0.615
- GE-HTS (OXPHOS gene expression; [5]): −1.153
- nucOX (nuOXPHOS transcripts; [5]): −1.209
- mitoOX (mtOXPHOS transcripts; [5]): −0.778
- cyt c (cytochrome c; [5]): 0.244
- Viability (C2C12 myotubes; [5]): −0.613
- MTT [2, 5]: −0.851

SMILES: Cn1cnc2c1c(=O)[nH]c(=O)n2C [theobromine]
- ΔΨm [1, 3]: −0.847
- ROS (reactive oxygen species; [3]): 0.179
- GE-HTS (OXPHOS gene expression; [3]): −0.561
- nucOX (nuOXPHOS transcripts; [3]): −0.449
- mitoOX (mtOXPHOS transcripts; [3]): −0.609
- cyt c (cytochrome c): 0.007
- cyt c (cytochrome c; [3]): −0.026
- Viability (C2C12 myotubes; [3]): −0.264
- MTT [2, 3]: −0.982

SMILES: CN(C)C(=S)SSC(=S)N(C)C [thiram]
- ΔΨm [1, 7]: −4.011
- ROS (reactive oxygen species; [7]): −3.915
- GE-HTS (OXPHOS gene expression; [7]): −2.420
- nucOX (nuOXPHOS transcripts; [7]): −2.770
- mitoOX (mtOXPHOS transcripts; [7]): −1.220
- cyt c (cytochrome c; [7]): −4.853
- Viability (C2C12 myotubes; [7]): −5.812
- MTT [2, 7]: −6.222

SMILES: CCN(CC)CCNC(=O)c1cc(S(C)(=O)=O)ccc1OC [tiapride]
- ΔΨm [1, 8]: −0.800
- ΔΨm [1, 7]: 0.171
- ROS (reactive oxygen species; [8]): 0.653
- ROS (reactive oxygen species; [7]): −0.466
- GE-HTS (OXPHOS gene expression; [8]): 0.341
- GE-HTS (OXPHOS gene expression; [7]): −0.283
- nucOX (nuOXPHOS transcripts; [8]): 0.416
- nucOX (nuOXPHOS transcripts; [7]): −0.220
- mitoOX (mtOXPHOS transcripts; [8]): 0.086
- mitoOX (mtOXPHOS transcripts; [7]): −0.355
- cyt c (cytochrome c; [8]): 0.917
- cyt c (cytochrome c; [7]): −0.107
- Viability (C2C12 myotubes; [8]): −1.454
- Viability (C2C12 myotubes; [7]): 1.174
- MTT [2, 8]: −1.563
- MTT [2, 7]: −0.646

SMILES: C[C@H]1CC[C@]2(NC1)O[C@H]1C[C@H]3[C@@H]4CC[C@H]5C[C@@H](O)CC[C@]5(C)[C@H]4CC[C@]3(C)[C@H]1[C@@H]2C [tomatidine]
- ΔΨm [1, 5]: −0.425
- ROS (reactive oxygen species; [5]): 1.323
- GE-HTS (OXPHOS gene expression; [5]): −1.375
- nucOX (nuOXPHOS transcripts; [5]): −1.473
- mitoOX (mtOXPHOS transcripts; [5]): −0.857
- cyt c (cytochrome c; [5]): 0.913
- cyt c (cytochrome c; composite Z-score vs mock-treated (DMSO) wells, concentration of each compound in μM): 1.135
- Viability (C2C12 myotubes; [5]): 0.490
- MTT [2, 5]: −1.376
